{
  "source": "patent US20260098046A1",
  "about": "“RIFABUTIN ANALOGS FOR THE TREATMENT OF DISEASE” (BIOVERSYS AG, priority 2022, published 2026)",
  "format_in_all_cases": "cell-based",
  "key": {"M. avium (ATCC25291)": {"test_system": "M. avium (ATCC25291)", "test": "MIC by broth microdilution (CLSI) against M. avium", "settings": "Mycobacterium avium, 168 h, cation adjusted Mueller Hinton broth + ADC (5%), 37° C. for 7 days (at least), read-out: In vitro activity (MIC) M. avium", "protocol": "(§1) MIC values were determined by broth microdilution method according to the CLSI guideline. Unless otherwise mentioned, MIC against A. baumannii was performed in RPMI medium supplemented with 10% FCS. MIC against M. abscessus was performed in Middlebrook 7H9 broth supplemented with Middlebrook ADC growth supplement (10%). All other MIC were performed in standard cation adjusted Mueller Hinton broth, supplemented with Middlebrook ADC growth supplement (5%) for the slow growing mycobacteria (M. xenopi, M. kansasii and M. avium).\n(§2) The following procedure applies to all species tested, except for M. xenopi. From a fresh culture plate (from overnight to several days depending on the bacteria), cells were resuspended in 0.9% (w/v) saline solution and bacterial inoculum was prepared in the respective testing medium with 5×10^5 CFU/mL. For M. xenopi, the inoculum was prepared from a fresh liquid culture (7H9+ADC). The appropriate volumes of a 10 mg/mL compound solution were directly dispensed in the 96-well assay plate using a digital dispenser to create two-fold dilution series from 32 to 0.002 μg/mL final concentration for A. baumannii and S. aureus; from 16 to 0.016 μg/mL for M. abscessus and M. avium; and from 1 to 6×10^−5 μg/mL for M. kansasii and M. xenopi. 100 μL of bacterial suspension was finally added to the compounds. Plates were covered and incubated without shaking at 35° C. for 20 hours for A. baumanii and S. aureus; at 30° C. for 4 days for M. abscessus; and at 37° C. for 7 days (at least) for M. kansasii (covered with aluminum foil to avoid light exposure), M. avium and M. xenopi. Every experiment contained an antibiotic as quality control. MIC was determined visually as the lowest concentration of a compound that prevents visible growth of the bacteria.\n(§3) The in vitro activity of compounds described herein was determined against S. aureus (UAMS-1625 strain), A. baumannii (HUMC1 strain), M. abscessus (ATCC 19977), M. kansasii (ATCC12478), M. avium (ATCC25291), and M. xenopi (ATCC19250)."}, "[1]": {"test_system": "A. baumannii (HUMC1 strain)", "test": "MIC by broth microdilution (CLSI) against A. baumannii", "settings": "Acinetobacter baumannii, RPMI medium supplemented with 10% FCS, 35° C. for 20 hours, read-out: In vitro activity (MIC) A. baumannii", "protocol": "as §1, §2, §3"}, "[2]": {"test_system": "M. abscessus (ATCC 19977)", "test": "MIC by broth microdilution (CLSI) against M. abscessus", "settings": "Mycobacteroides abscessus, ATCC19977, 96 h; ATCC 19977; Middlebrook 7H9 broth + ADC (10%); 30° C. for 4 days; read-out: In vitro activity (MIC) M. abscessus", "protocol": "as §1, §2, §3"}, "M. xenopi (ATCC19250)": {"test_system": "M. xenopi (ATCC19250)", "test": "MIC by broth microdilution (CLSI) against M. xenopi", "settings": "Mycobacterium xenopi, 168 h, cation adjusted Mueller Hinton broth + ADC (5%), 37° C. for 7 days (at least), read-out: In vitro activity (MIC) M. xenopi", "protocol": "as §1, §2, §3"}, "[3]": {"test_system": "S. aureus (UAMS-1625 strain)", "test": "MIC by broth microdilution (CLSI) against S. aureus", "settings": "Staphylococcus aureus, 20 h, read-out: In vitro activity (MIC) S. aureus", "protocol": "as §1, §2, §3"}, "M. kansasii (ATCC12478)": {"test_system": "M. kansasii (ATCC12478)", "test": "MIC by broth microdilution (CLSI) against M. kansasii", "settings": "Mycobacterium kansasii, 168 h, cation adjusted Mueller Hinton broth + ADC (5%), 37° C. for 7 days (at least), read-out: In vitro activity (MIC) M. kansasii", "protocol": "as §1, §2, §3"}},
  "data": [
    {"smiles": "CO[C@H]1/C=C/O[C@@]2(C)Oc3c(C)c(O)c4c(c3C2=O)C2=NC3(CCN(CC(C)C)CC3)NC2=C(NC(=O)/C(C)=C\\C=C\\[C@H](C)[C@H](O)[C@@H](C)[C@@H](O)[C@@H](C)[C@H](OC(=O)Cn2cc(-c3ccccn3)nn2)[C@@H]1C)C4=O", "note": "[Compound 8]", "values": [
      {"measurement": "MIC", "setting": "M. avium (ATCC25291)", "value": 0.06, "unit": "µg/mL"},
      {"measurement": "MIC", "setting": "[1]", "value": "≤ 0.002", "unit": "µg/mL"},
      {"measurement": "MIC", "setting": "[2]", "value": 0.25, "unit": "µg/mL"},
      {"measurement": "MIC", "setting": "M. xenopi (ATCC19250)", "value": 0.06, "unit": "µg/mL"},
      {"measurement": "MIC", "setting": "[3]", "value": 0.03, "unit": "µg/mL"},
      {"measurement": "MIC", "setting": "M. kansasii (ATCC12478)", "value": 0.004, "unit": "µg/mL"}
    ]},
    {"smiles": "CO[C@H]1/C=C/O[C@@]2(C)Oc3c(C)c(O)c4c(c3C2=O)C2=NC3(CCN(CC(C)C)CC3)NC2=C(NC(=O)/C(C)=C\\C=C\\[C@H](C)[C@H](O)[C@@H](C)[C@@H](O)[C@@H](C)[C@H](OC(=O)Cn2cc(C3CCCCC3)nn2)[C@@H]1C)C4=O", "note": "[Compound 26]", "values": [
      {"measurement": "MIC", "setting": "M. avium (ATCC25291)", "value": 0.03, "unit": "µg/mL"},
      {"measurement": "MIC", "setting": "[1]", "value": 0.016, "unit": "µg/mL"},
      {"measurement": "MIC", "setting": "[2]", "value": 0.25, "unit": "µg/mL"},
      {"measurement": "MIC", "setting": "M. xenopi (ATCC19250)", "value": 0.03, "unit": "µg/mL"},
      {"measurement": "MIC", "setting": "[3]", "value": 0.125, "unit": "µg/mL"},
      {"measurement": "MIC", "setting": "M. kansasii (ATCC12478)", "value": 0.002, "unit": "µg/mL"}
    ]},
    {"smiles": "CO[C@H]1/C=C/O[C@@]2(C)Oc3c(C)c(O)c4c(c3C2=O)C2=NC3(CCN(CC(C)C)CC3)NC2=C(NC(=O)/C(C)=C\\C=C\\[C@H](C)[C@H](O)[C@@H](C)[C@@H](O)[C@@H](C)[C@H](OC(=O)Cn2cc(-c3ccccc3)nn2)[C@@H]1C)C4=O", "note": "[Compound 1]", "values": [
      {"measurement": "MIC", "setting": "M. avium (ATCC25291)", "value": 0.03, "unit": "µg/mL"},
      {"measurement": "MIC", "setting": "[1]", "value": 0.004, "unit": "µg/mL"},
      {"measurement": "MIC", "setting": "[2]", "value": 0.25, "unit": "µg/mL"},
      {"measurement": "MIC", "setting": "M. xenopi (ATCC19250)", "value": 0.016, "unit": "µg/mL"},
      {"measurement": "MIC", "setting": "[3]", "value": 0.125, "unit": "µg/mL"},
      {"measurement": "MIC", "setting": "M. kansasii (ATCC12478)", "value": 0.002, "unit": "µg/mL"}
    ]},
    {"smiles": "CO[C@H]1/C=C/O[C@@]2(C)Oc3c(C)c(O)c4c(c3C2=O)C2=NC3(CCN(CC(C)C)CC3)NC2=C(NC(=O)/C(C)=C\\C=C\\[C@H](C)[C@H](O)[C@@H](C)[C@@H](O)[C@@H](C)[C@H](OC(=O)Cn2cc(CN(C)Cc3ccccc3)nn2)[C@@H]1C)C4=O", "note": "[Compound 12]", "values": [
      {"measurement": "MIC", "setting": "M. avium (ATCC25291)", "value": 0.03, "unit": "µg/mL"},
      {"measurement": "MIC", "setting": "[1]", "value": 0.008, "unit": "µg/mL"},
      {"measurement": "MIC", "setting": "[2]", "value": 0.25, "unit": "µg/mL"},
      {"measurement": "MIC", "setting": "M. xenopi (ATCC19250)", "value": 0.03, "unit": "µg/mL"},
      {"measurement": "MIC", "setting": "[3]", "value": 0.125, "unit": "µg/mL"},
      {"measurement": "MIC", "setting": "M. kansasii (ATCC12478)", "value": 0.004, "unit": "µg/mL"}
    ]}
  ]
}
